“And” between values parts separate entries of the source, which are not always exact repeats. Equal entries are not always repeated. Toxic doses and inconclusive results are not listed. How the source made its calls: active means survival T/C of 150% or more; inactive means T/C below 125% in these data.
Tested on: P388 leukemia ip, CD2F1 mice, survival T/C
Assay: NCI In Vivo Anticancer Drug Screen. Data for tumor model P388 Leukemia (intraperitoneal) in CD2F1 (CDF1) mice
Conditions: endpoint: median survival time, higher = longer survival
Procedure, shortened: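 Mice carrying the transplanted tumor received test compound or vehicle. Survival was recorded in each group, and the value is the treated-group measurement divided by that of the vehicle-treated control group.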

[1] = dose: 60.0 mg/kg/injection, schedule: Q01DX005 (ip), vehicle: saline with Tween-80
[2] = dose: 120.0 mg/kg/injection, schedule: Q01DX005 (ip), vehicle: saline with Tween-80
[3] = dose: 240.0 mg/kg/injection, schedule: Q01DX005 (ip), vehicle: saline with Tween-80
[4] = dose: 25.0 mg/kg/injection, schedule: Q01DX009 (ip), vehicle: Klucel (hydroxypropylcellulose) (HPC)
[5] = dose: 50.0 mg/kg/injection, schedule: Q01DX005 (ip), vehicle: saline with Tween-80
[6] = dose: 100.0 mg/kg/injection, schedule: Q01DX005 (ip), vehicle: saline with Tween-80
[7] = dose: 50.0 mg/kg/injection, schedule: Q01DX009 (ip), vehicle: saline with Tween-80
[8] = dose: 100.0 mg/kg/injection, schedule: Q01DX009 (ip), vehicle: saline with Tween-80
[9] = dose: 200.0 mg/kg/injection, schedule: Q01DX009 (ip), vehicle: saline with Tween-80

Measured: T/C

C[N+](C)=c1ccc2nc3c(cc(NCCCNc4cc5oc6cc(=[N+](C)C)ccc-6nc5c5ccccc45)c4ccccc43)oc-2c1
inactive: [1] 106 % of control | [2] 113 % of control | [3] 103 % of control

CC[C@@H](O)[C@H](CC[Se]c1ccccc1)C(=O)[C@H](O)C1CCCCC1
inactive: [1] 107 % of control | [2] 105 % of control | [3] 108 % of control

CC(=O)O[C@H]1CC[C@@]2(C)C(=CC[C@@H]3[C@@H]2CC[C@]2(C)C(=NCCCN4CCOCC4)CC[C@@H]32)C1
inactive: dose: 50.0 mg/kg/injection, schedule: Q01DX005 (ip), vehicle: Klucel (hydroxypropylcellulose) (HPC) 105 % of control | dose: 100.0 mg/kg/injection, schedule: Q01DX005 (ip), vehicle: Klucel (hydroxypropylcellulose) (HPC) 101 % of control | dose: 200.0 mg/kg/injection, schedule: Q01DX005 (ip), vehicle: Klucel (hydroxypropylcellulose) (HPC) 99 % of control

CS(=O)(=O)CCCCCCCCCCS(C)(=O)=O
inactive: dose: 100.0 mg/kg/injection, schedule: Q01DX001 (ip), vehicle: saline 95 % of control | dose: 200.0 mg/kg/injection, schedule: Q01DX001 (ip), vehicle: saline 100 % of control | dose: 400.0 mg/kg/injection, schedule: Q01DX001 (ip), vehicle: saline 93 % of control

O=C(O)c1cc(Cc2ccc(O)c(C(=O)O)c2)ccc1O (tested in a mixture with another compound)
inactive: [4] 112 % of control | dose: 50.0 mg/kg/injection, schedule: Q01DX009 (ip), vehicle: Klucel (hydroxypropylcellulose) (HPC) 107 % of control and 115 % of control | dose: 100.0 mg/kg/injection, schedule: Q01DX009 (ip), vehicle: Klucel (hydroxypropylcellulose) (HPC) 121 % of control

CCOC(=O)C[n+]1cc2ccccc2cc1C
inactive: [5] 94 % of control | [6] 108 % of control

N#CCc1c(Cl)n(-c2ccccc2)c2ccccc12
inactive: dose: 100.0 mg/kg/injection, schedule: Q01DX001 (ip), vehicle: Klucel (hydroxypropylcellulose) (HPC) 101 % of control | dose: 200.0 mg/kg/injection, schedule: Q01DX001 (ip), vehicle: Klucel (hydroxypropylcellulose) (HPC) 93 % of control | dose: 400.0 mg/kg/injection, schedule: Q01DX001 (ip), vehicle: Klucel (hydroxypropylcellulose) (HPC) 88 % of control

C1CCC2C(C1)CCC1CCCCC12 (stereo not given)
inactive: dose: 25.0 mg/kg/injection, schedule: Q01DX001 (ip), vehicle: saline with Tween-80 96 % of control | dose: 50.0 mg/kg/injection, schedule: Q01DX001 (ip), vehicle: saline with Tween-80 113 % of control | dose: 100.0 mg/kg/injection, schedule: Q01DX001 (ip), vehicle: saline with Tween-80 100 % of control and 114 % of control | dose: 200.0 mg/kg/injection, schedule: Q01DX001 (ip), vehicle: saline with Tween-80 110 % of control

Cc1cc(=O)c2c([nH]1)c1c(c3[nH]c(C)cc(=O)c32)Oc2ccccc2O1
inactive: [5] 93 % of control | [6] 95 % of control | dose: 200.0 mg/kg/injection, schedule: Q01DX005 (ip), vehicle: saline with Tween-80 97 % of control

S=c1[nH]cc2cnccn12
inactive: dose: 50.0 mg/kg/injection, schedule: Q04DX003 (ip), vehicle: saline with Tween-80 100 % of control | dose: 100.0 mg/kg/injection, schedule: Q04DX003 (ip), vehicle: saline with Tween-80 110 % of control | dose: 200.0 mg/kg/injection, schedule: Q04DX003 (ip), vehicle: saline with Tween-80 110 % of control

O=C1NC2C(CC(O)C(O)C2O)c2cc3c(c(O)c21)OCO3 (stereo not given)
inactive: dose: 0.19 mg/kg/injection, schedule: Q01DX009 (ip), vehicle: saline + alcohol 103 % of control | dose: 0.38 mg/kg/injection, schedule: Q01DX009 (ip), vehicle: saline + alcohol 111 % of control | dose: 0.75 mg/kg/injection, schedule: Q01DX009 (ip), vehicle: saline + alcohol 116 % of control | dose: 1.44 mg/kg/injection, schedule: Q01DX009 (ip), vehicle: saline + alcohol 107 % of control | dose: 1.5 mg/kg/injection, schedule: Q01DX009 (ip), vehicle: saline + alcohol 117 % of control | dose: 2.88 mg/kg/injection, schedule: Q01DX009 (ip), vehicle: saline + alcohol 115 % of control | dose: 5.75 mg/kg/injection, schedule: Q01DX009 (ip), vehicle: saline + alcohol 115 % of control | dose: 11.5 mg/kg/injection, schedule: Q01DX009 (ip), vehicle: saline + alcohol 115 % of control

O=[N+]([O-])c1cc(Cl)c(Cl)cc1Cl
inactive: [7] 109 % of control | [8] 100 % of control | [9] 104 % of control

Oc1c(Br)cc(Br)cc1/C=N/NC(=S)NC12CC3CC(CC(C3)C1)C2
inactive: dose: 30.0 mg/kg/injection, schedule: Q01DX005 (ip), vehicle: Klucel (hydroxypropylcellulose) (HPC) 87 % of control | dose: 60.0 mg/kg/injection, schedule: Q01DX005 (ip), vehicle: Klucel (hydroxypropylcellulose) (HPC) 87 % of control | dose: 120.0 mg/kg/injection, schedule: Q01DX005 (ip), vehicle: Klucel (hydroxypropylcellulose) (HPC) 88 % of control and 93 % of control | dose: 240.0 mg/kg/injection, schedule: Q01DX005 (ip), vehicle: Klucel (hydroxypropylcellulose) (HPC) 89 % of control

Cc1c2cnccc2c(C)c2c1c1c(C)c3cnccc3c(C)c1n2C
inactive: dose: 6.25 mg/kg/injection, schedule: Q04DX002 (ip), vehicle: distilled water + Tween-80 94 % of control | dose: 12.5 mg/kg/injection, schedule: Q04DX002 (ip), vehicle: distilled water + Tween-80 97 % of control | dose: 25.0 mg/kg/injection, schedule: Q04DX002 (ip), vehicle: distilled water + Tween-80 102 % of control | dose: 50.0 mg/kg/injection, schedule: Q04DX002 (ip), vehicle: distilled water + Tween-80 108 % of control | dose: 100.0 mg/kg/injection, schedule: Q04DX002 (ip), vehicle: distilled water + Tween-80 94 % of control

Cc1noc(N(C)C)c1C
inactive: dose: 50.0 mg/kg/injection, schedule: Q01DX009 (ip), vehicle: saline 102 % of control | dose: 100.0 mg/kg/injection, schedule: Q01DX009 (ip), vehicle: saline 100 % of control | dose: 200.0 mg/kg/injection, schedule: Q01DX009 (ip), vehicle: saline 108 % of control

O=C1OC(C(=O)O)c2ccc3c(c21)OCO3 (stereo not given)
inactive: [8] 100 % of control | [9] 98 % of control | dose: 400.0 mg/kg/injection, schedule: Q01DX009 (ip), vehicle: saline with Tween-80 91 % of control

O=C(O)c1ccc(S(=O)(=O)OCCCl)cc1
inactive: dose: 6.25 mg/kg/injection, schedule: Q01DX009 (ip), vehicle: Klucel (hydroxypropylcellulose) (HPC) 107 % of control | dose: 12.5 mg/kg/injection, schedule: Q01DX009 (ip), vehicle: Klucel (hydroxypropylcellulose) (HPC) 100 % of control | [4] 110 % of control

COc1cc(C(Nc2ccccn2)c2cc3c(cc2O)OCO3)cc(OC)c1OC (stereo not given)
inactive: [1] 100 % of control | [2] 94 % of control | [3] 94 % of control

CCOC(=O)C(N)C[S][Sn]([CH3])([CH3])[Cl] (stereo not given)
inactive: [7] 91 % of control

CCOC(=O)C1C(c2cc(OC)c(OC)c(OC)c2)c2cc3c(cc2OC1(C)OC)OCO3 (stereo not given)
inactive: [1] 86 % of control | [2] 86 % of control | [3] 88 % of control

CC1OC(OC2C(Oc3cc(O)c4c(=O)cc(-c5ccc(OC6OC(CO)C(O)C(O)C6OC6OC(C)C(O)C(O)C6O)c(O)c5)oc4c3)OC(CO)C(O)C2O)C(O)C(O)C1O (stereo not given)
inactive: dose: 3.0 mg/kg/injection, schedule: Q01DX009 (ip), vehicle: Klucel (hydroxypropylcellulose) (HPC) 106 % of control | dose: 6.0 mg/kg/injection, schedule: Q01DX009 (ip), vehicle: Klucel (hydroxypropylcellulose) (HPC) 95 % of control | dose: 12.0 mg/kg/injection, schedule: Q01DX009 (ip), vehicle: Klucel (hydroxypropylcellulose) (HPC) 93 % of control | dose: 24.0 mg/kg/injection, schedule: Q01DX009 (ip), vehicle: Klucel (hydroxypropylcellulose) (HPC) 95 % of control

Source: PubChem BioAssay AID330 (DTP/NCI, 2004)
